Source: publication PMC2577671, “Evaluation of Dimebon in cellular model of Huntington's disease” (Molecular Neurodegeneration, 2008)

Experiments:
[1] = biological target: T1, Dopamine D2S receptor (Homo sapiens, UniProt P14416); assay: MDS Pharma Services binding screen at […]
T1 construct: gene DRD2; D2S
Target sequence in this assay (P14416 other isoform, or with tags, fused parts or gaps): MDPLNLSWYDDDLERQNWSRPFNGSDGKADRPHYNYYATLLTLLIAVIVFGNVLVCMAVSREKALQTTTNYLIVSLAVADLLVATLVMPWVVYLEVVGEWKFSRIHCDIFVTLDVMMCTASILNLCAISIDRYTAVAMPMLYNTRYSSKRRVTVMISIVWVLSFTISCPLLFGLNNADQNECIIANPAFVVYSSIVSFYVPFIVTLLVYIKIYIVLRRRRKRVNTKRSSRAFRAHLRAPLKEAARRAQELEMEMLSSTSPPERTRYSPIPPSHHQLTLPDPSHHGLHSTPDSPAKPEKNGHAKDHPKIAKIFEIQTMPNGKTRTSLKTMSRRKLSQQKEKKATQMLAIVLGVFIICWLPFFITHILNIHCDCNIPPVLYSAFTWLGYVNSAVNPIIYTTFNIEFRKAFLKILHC

[2] = biological target: T2, Serotonin 5-HT6 receptor (Homo sapiens, UniProt P50406); assay: MDS Pharma Services binding screen at […]
T2 construct: gene HTR6

[3] = biological target: T3, α1B-Adrenergic receptor (Rattus norvegicus, UniProt P15823); assay: MDS Pharma Services binding screen at […]
T3 construct: gene Adra1b

[4] = biological target: T4, Serotonin 5-HT2c receptor (Homo sapiens, UniProt P28335); assay: MDS Pharma Services binding screen at […]
T4 construct: gene HTR2C

[5] = biological target: T4, Serotonin 5-HT2c receptor; assay: biochemical; parameters: MDS Pharma Lead Profiling screen, binding assays, per cent inhibition, duplicate
Experimental: (§1) The activity of Dimebon against selected set of biochemical targets was performed by MDS Pharma Services . The Dimebon was provided to MDS Pharma as dry powder, dissolved in DMSO and tested in 10 μM concentrations. The standard Lead Profiling + CYP450 screen was performed according to MDS Pharma specifications with additional custom-chosen targets added to the screen as indicated. To further understand potential mechanisms responsible for clinical effects of Dimebon, we evaluated Dimebon against a set of selected biochemical targets. Dimebon evaluation was performed by MDS Pharma Services . The standard Lead Profiling + CYP450 screen was performed with additional custom-selected targets added to the screen. The results of the screen obtained at 10 μM of Dimebon are provided as Additional File 3. […] Low affinity (50–60% inhibition) interactions were also observed for CYP450, 2C19 receptor, voltage-gated L-type Ca^2+ channel, Dopamine D4.2 receptor, and Serotonin 5-HT1 receptor. […] Supplementary file 1750-1326-3-15-S3.pdf: Additional file 3 The results of Dimebon screening against a selected set of biochemical targets. The complete results obtained by MDS Pharma with a selected list of biochemical targets using 10 μM of Dimebon as a probe. The Cat numbers refer to the MDS Pharma Services assay specification. The receptors and species are listed. Dimebon was tested at 10 μM concentratio in duplicate. The % inhibition by Dimebon is shown numerically and graphically for each receptor. Significant targets (defined as % inhibition > 50%) are highlighted in yellow. Click here for file

[6] = biological target: T5, Transporter, Serotonin (SERT) (Homo sapiens, UniProt P31645); assay: biochemical; parameters: MDS Pharma Lead Profiling screen, binding assays, per cent inhibition, duplicate
T5 construct: gene SLC6A4
Experimental: as §1

[7] = biological target: T6, Histamine H2 receptor (Homo sapiens, UniProt P25021); assay: biochemical; parameters: MDS Pharma Lead Profiling screen, binding assays, per cent inhibition, duplicate
T6 construct: gene HRH2
Experimental: as §1

[8] = biological target: T1, Dopamine D2S receptor; assay: biochemical; parameters: MDS Pharma Lead Profiling screen, binding assays, per cent inhibition, duplicate
Experimental: as §1
Target sequence in this assay (P14416 1-414 isoform P14416-2): as the sequence (P14416 other isoform, or with tags, fused parts or gaps) above

[9] = biological target: T2, Serotonin 5-HT6 receptor; assay: biochemical; parameters: MDS Pharma Lead Profiling screen, binding assays, per cent inhibition, duplicate
Experimental: as §1

[10] = biological target: T7, Adenosine A2A (Homo sapiens, UniProt P29274); assay: biochemical; parameters: MDS Pharma Lead Profiling screen, binding assays, per cent inhibition, duplicate
T7 construct: gene ADORA2A
Experimental: as §1

[11] = biological target: T8, CYP450, 2C19 (Homo sapiens, UniProt P33261); assay: in vitro; parameters: MDS Pharma Lead Profiling + CYP450 screen, enzyme assays, per cent inhibition, duplicate
T8 construct: gene CYP2C19
Experimental: as §1

[12] = biological target: T9, CYP450, 3A4 (Homo sapiens, UniProt P08684); assay: in vitro; parameters: MDS Pharma Lead Profiling + CYP450 screen, enzyme assays, per cent inhibition, duplicate
T9 construct: gene CYP3A4
Experimental: as §1

[13] = biological target: T10, CYP450, 2C9 (Homo sapiens, UniProt P11712); assay: in vitro; parameters: MDS Pharma Lead Profiling + CYP450 screen, enzyme assays, per cent inhibition, duplicate
T10 construct: gene CYP2C9
Experimental: as §1

[14] = biological target: T11, CYP450, 2D6 (Homo sapiens, UniProt P10635); assay: in vitro; parameters: MDS Pharma Lead Profiling + CYP450 screen, enzyme assays, per cent inhibition, duplicate
T11 construct: gene CYP2D6
Experimental: as §1

[15] = biological target: T12, CYP450, 1A2 (Homo sapiens, UniProt P05177); assay: in vitro; parameters: MDS Pharma Lead Profiling + CYP450 screen, enzyme assays, per cent inhibition, duplicate
T12 construct: gene CYP1A2
Experimental: as §1

[16] = biological target: T13, Monoamine Oxidase MAO-B (Homo sapiens, UniProt P27338); assay: biochemical; parameters: MDS Pharma Lead Profiling + CYP450 screen, enzyme assays, per cent inhibition, duplicate
T13 construct: gene MAOB
Experimental: as §1

[17] = biological target: Peptidase, BACE1 (beta-Secretase) (Homo sapiens, UniProt P56817); assay: biochemical; parameters: MDS Pharma Lead Profiling + CYP450 screen, enzyme assays, per cent inhibition, duplicate
Experimental: as §1

[18] = biological target: T14, Monoamine Oxidase MAO-A (Homo sapiens, UniProt P21397); assay: biochemical; parameters: MDS Pharma Lead Profiling + CYP450 screen, enzyme assays, per cent inhibition, duplicate
T14 construct: gene MAOA
Experimental: as §1

[19] = biological target: T15, Potassium Channel hERG (Homo sapiens, UniProt Q12809); assay: in vitro; parameters: MDS Pharma Lead Profiling screen, binding assays, per cent inhibition, duplicate
T15 construct: gene KCNH2
Experimental: as §1, with “Dimebon was tested at 10 μM concentratio in duplicate. The % inhibition by Dimebon is shown numerically and graphically for each receptor. Significant targets (defined as % inhibition > 50%) are highlighted in yellow. Click here for file” left out

[20] = biological target: T16, α1A-Adrenergic receptor (Rattus norvegicus, UniProt P43140); assay: MDS Pharma Services binding screen at […]
T16 construct: gene Adra1a

[21] = biological target: T17, α2A-Adrenergic receptor (Homo sapiens, UniProt P08913); assay: MDS Pharma Services binding screen at […]
T17 construct: gene ADRA2A

[22] = biological target: T18, Serotonin 5-HT5A receptor (Homo sapiens, UniProt P47898); assay: MDS Pharma Services binding screen at […]
T18 construct: gene HTR5A

[23] = biological target: T6, Histamine H2 receptor; assay: MDS Pharma Services binding screen at […]

T4 sequence (P28335 33-458): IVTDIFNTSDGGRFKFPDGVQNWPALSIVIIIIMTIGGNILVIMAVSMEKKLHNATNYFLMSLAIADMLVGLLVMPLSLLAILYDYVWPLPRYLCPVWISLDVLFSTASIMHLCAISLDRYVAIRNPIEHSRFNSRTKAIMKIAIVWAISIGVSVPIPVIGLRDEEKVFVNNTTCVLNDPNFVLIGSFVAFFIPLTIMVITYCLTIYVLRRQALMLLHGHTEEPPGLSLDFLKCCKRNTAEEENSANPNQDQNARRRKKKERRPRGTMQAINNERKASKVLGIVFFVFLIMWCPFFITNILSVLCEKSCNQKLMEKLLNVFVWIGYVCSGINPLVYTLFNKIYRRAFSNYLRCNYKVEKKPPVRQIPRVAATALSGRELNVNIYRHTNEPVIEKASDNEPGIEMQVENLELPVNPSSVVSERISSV
T6 sequence (P25021 whole entry): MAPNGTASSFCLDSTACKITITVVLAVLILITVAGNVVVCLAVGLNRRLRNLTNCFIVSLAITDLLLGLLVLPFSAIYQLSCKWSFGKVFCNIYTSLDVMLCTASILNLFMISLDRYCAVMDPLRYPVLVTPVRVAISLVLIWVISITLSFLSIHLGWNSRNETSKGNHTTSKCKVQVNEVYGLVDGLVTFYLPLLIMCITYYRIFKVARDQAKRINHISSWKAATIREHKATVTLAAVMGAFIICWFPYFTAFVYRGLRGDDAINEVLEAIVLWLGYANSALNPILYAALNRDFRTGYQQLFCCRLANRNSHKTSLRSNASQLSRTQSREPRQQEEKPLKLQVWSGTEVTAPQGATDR
T2 sequence (P50406 whole entry): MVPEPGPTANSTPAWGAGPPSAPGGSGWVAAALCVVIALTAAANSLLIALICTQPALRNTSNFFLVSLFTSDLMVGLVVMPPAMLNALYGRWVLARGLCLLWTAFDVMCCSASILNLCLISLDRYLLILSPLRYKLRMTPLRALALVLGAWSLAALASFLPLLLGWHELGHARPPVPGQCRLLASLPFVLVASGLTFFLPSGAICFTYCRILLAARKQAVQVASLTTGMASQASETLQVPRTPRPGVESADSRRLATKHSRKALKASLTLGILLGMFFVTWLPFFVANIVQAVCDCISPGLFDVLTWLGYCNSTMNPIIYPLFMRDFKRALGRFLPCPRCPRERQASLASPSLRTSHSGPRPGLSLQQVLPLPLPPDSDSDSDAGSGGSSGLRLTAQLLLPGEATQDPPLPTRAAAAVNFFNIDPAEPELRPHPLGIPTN
T11 sequence (P10635 whole entry): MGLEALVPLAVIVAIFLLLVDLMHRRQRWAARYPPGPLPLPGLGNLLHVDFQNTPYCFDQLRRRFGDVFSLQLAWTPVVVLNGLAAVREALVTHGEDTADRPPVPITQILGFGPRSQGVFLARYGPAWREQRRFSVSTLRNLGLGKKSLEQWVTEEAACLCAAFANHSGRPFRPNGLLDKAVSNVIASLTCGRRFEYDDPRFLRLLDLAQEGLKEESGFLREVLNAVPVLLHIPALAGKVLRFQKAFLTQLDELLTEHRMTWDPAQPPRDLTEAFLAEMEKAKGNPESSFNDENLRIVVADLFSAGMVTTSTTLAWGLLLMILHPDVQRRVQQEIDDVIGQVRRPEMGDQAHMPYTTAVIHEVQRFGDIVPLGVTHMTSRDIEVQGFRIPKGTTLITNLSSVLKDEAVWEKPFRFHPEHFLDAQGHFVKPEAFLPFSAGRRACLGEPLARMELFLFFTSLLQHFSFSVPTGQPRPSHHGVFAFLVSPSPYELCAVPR
Sequence of Peptidase, BACE1 (beta-Secretase) (P56817 whole entry): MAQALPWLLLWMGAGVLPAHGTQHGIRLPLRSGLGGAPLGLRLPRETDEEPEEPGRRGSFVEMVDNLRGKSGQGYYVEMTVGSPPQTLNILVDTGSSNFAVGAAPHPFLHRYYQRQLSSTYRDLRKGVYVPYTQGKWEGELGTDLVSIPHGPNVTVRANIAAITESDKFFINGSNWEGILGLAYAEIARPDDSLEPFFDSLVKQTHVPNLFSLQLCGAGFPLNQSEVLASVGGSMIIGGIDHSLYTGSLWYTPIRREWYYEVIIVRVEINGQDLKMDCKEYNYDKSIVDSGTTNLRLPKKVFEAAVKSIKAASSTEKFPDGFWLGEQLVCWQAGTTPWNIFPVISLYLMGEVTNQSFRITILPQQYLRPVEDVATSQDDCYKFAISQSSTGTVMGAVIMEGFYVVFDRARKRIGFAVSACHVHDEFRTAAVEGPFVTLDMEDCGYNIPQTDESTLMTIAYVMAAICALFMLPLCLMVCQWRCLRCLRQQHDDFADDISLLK
T10 sequence (P11712 whole entry): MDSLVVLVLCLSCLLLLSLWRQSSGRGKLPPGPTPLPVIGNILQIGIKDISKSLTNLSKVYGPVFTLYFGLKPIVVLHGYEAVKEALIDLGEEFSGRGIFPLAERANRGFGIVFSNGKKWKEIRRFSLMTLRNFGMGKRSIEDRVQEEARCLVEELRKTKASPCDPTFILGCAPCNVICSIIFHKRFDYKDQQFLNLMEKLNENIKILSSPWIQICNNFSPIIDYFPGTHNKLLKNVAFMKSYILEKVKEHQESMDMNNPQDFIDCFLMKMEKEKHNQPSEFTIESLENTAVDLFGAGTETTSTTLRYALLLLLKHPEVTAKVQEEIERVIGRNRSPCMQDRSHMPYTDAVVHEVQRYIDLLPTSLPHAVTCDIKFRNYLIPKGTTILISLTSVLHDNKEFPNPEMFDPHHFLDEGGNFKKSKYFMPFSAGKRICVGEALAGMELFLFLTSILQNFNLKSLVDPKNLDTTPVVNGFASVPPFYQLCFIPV
T7 sequence (P29274 whole entry): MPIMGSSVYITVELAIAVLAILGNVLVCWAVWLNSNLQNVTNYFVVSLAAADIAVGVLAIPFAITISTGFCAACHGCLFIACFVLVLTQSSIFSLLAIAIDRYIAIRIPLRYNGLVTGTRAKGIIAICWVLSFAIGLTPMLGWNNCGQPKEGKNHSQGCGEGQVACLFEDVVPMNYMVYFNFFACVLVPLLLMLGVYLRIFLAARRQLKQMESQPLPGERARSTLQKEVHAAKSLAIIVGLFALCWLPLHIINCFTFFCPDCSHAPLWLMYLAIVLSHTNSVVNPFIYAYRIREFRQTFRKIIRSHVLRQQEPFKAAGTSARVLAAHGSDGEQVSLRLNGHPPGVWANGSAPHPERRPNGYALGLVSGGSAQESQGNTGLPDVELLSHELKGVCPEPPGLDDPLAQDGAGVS
T13 sequence (P27338 whole entry): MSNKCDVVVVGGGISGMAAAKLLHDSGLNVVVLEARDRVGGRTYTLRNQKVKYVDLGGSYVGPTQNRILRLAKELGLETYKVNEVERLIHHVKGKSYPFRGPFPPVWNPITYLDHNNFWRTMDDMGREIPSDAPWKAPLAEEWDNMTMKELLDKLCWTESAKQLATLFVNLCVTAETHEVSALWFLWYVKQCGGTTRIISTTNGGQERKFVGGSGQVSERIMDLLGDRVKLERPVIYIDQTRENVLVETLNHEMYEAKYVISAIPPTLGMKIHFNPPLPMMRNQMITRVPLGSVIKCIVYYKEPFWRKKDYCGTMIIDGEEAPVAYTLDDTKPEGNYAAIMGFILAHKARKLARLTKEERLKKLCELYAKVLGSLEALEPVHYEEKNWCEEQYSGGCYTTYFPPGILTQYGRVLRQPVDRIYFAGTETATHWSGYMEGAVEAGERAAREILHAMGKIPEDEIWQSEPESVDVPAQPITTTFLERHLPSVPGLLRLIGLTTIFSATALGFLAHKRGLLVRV
T16 sequence (P43140 whole entry): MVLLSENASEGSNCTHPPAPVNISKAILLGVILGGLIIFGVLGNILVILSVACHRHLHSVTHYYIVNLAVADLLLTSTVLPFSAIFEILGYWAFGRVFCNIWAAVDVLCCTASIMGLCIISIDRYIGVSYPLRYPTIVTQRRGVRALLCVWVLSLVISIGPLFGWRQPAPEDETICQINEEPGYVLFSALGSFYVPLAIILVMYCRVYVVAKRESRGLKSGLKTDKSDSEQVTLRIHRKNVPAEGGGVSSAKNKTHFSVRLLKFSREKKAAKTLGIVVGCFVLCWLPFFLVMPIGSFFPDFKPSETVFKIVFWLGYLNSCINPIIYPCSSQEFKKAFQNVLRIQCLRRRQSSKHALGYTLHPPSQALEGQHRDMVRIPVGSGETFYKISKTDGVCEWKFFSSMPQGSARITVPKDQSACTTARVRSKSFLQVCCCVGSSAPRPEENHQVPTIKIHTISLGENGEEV
T18 sequence (P47898 whole entry): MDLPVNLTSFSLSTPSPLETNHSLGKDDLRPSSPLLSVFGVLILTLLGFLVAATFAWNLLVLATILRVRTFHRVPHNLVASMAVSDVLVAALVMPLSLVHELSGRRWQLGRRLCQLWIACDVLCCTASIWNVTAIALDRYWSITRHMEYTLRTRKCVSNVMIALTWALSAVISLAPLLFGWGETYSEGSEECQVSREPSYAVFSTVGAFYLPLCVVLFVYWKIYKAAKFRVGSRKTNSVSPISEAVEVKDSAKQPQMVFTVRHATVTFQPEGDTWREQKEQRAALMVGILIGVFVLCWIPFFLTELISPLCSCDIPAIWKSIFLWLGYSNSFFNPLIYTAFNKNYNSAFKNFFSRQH

## Cc1ccc2c(c1)c1c(n2CCc2ccc(C)nc2)CCN(C)C1 [Dimebon, 2,3,4,5-Tetrahydro-2,8-dimethyl-5-(2-(6-methyl-3-pyridyl)ethyl)-1H-pyrido(4,3-b)indole]
[1]
  inhibition at 10 µM: 70 to 80%
[2]
  inhibition at 10 µM: > 90%
[3]
  inhibition at 10 µM: > 90%
[4]
  inhibition at 10 µM: > 90%
[5]
  inhibition at 10 µM: 95%
[6]
  inhibition at 10 µM: -7%
[7]
  inhibition at 10 µM: 96%
[8]
  inhibition at 10 µM: 83%
[9]
  inhibition at 10 µM: 101%
[10]
  inhibition at 10 µM: -3%
[11]
  inhibition at 10 µM: 55%
[12]
  inhibition at 10 µM: 22%
[13]
  inhibition at 10 µM: 2%
[14]
  inhibition at 10 µM: 16%
[15]
  inhibition at 10 µM: 5%
[16]
  inhibition at 10 µM: 5%
[17]
  inhibition at 10 µM: -9%
[18]
  inhibition at 10 µM: 6%
[19]
  inhibition at 10 µM: 45%
[20]
  inhibition at 10 µM: > 90%
[21]
  inhibition at 10 µM: > 90%
[22]
  inhibition at 10 µM: > 90%
[23]
  inhibition at 10 µM: > 90%
